Data: patent US10059704B2, “1,4-disubstituted 1,2,3-triazoles, methods for preparing same, and diagnostic and therapeutic uses thereof” (CENTRE NATIONAL DE LA RECHERCHE SCIENTIFIQUE (C.N.R.S.), priority 2011, dated 2018)

Question: Which melting point does the source give for `c1ccc(-c2ccc(-c3cn([C@H]4CN5CCC4CC5)nn3)s2)cc1` here?
Answer: 184 °C

Question: With `COC(=O)c1ccc(-c2ccc(-c3cn([C@H]4CN5CCC4CC5)nn3)s2)cc1Cl` as the molecule, how does the melting point read?
Answer: 200 °C

Question: With `Clc1ccc(-c2cccc(-c3cn([C@H]4CN5CCC4CC5)nn3)c2)cn1` as the molecule, how does the melting point read?
Answer: 80 °C (dec.)

Question: Which melting point does the source give for `CN1CCN(Cc2cccc(-c3ccc(-c4cn([C@H]5CN6CCC5CC6)nn4)s3)c2)CC1` here?
Answer: 155 °C

Question: Which melting point does the source give for `O=[N+]([O-])c1ccc(-c2ccc(-c3cn([C@H]4CN5CCC4CC5)nn3)s2)cn1` here?
Answer: 160 °C

Question: With `O=[N+]([O-])c1ccc(-c2cccc(-c3cn([C@H]4CN5CCC4CC5)nn3)c2)cn1` as the molecule, how does the melting point read?
Answer: 180 °C

Question: With `FCc1cccc(-c2ccc(-c3cn([C@H]4CN5CCC4CC5)nn3)s2)c1` as the molecule, how does the melting point read?
Answer: 144 °C

Question: For `Cl.ClCc1ccc(-c2ccc(-c3cn([C@H]4CN5CCC4CC5)nn3)s2)cc1`, which melting point is on record?
Answer: 255 °C

Question: For `Cl.ClCc1ccc(-c2cn([C@H]3CN4CCC3CC4)nn2)cc1`, which melting point is on record?
Answer: 240 °C

Question: With `c1ccc(-c2cn(C3CCCN4CCCCC34)nn2)cc1` (centres unmarked) as the molecule, how does the melting point read?
Answer: 150 °C

Question: For `Fc1ccc(-c2cn(C3CCCN4CCCCC34)nn2)cc1` (centres unmarked), which melting point is on record?
Answer: 142 °C

Question: With `COc1ccc(-n2cc(C3(O)CN4CCC3CC4)nn2)cc1` (centres unmarked) as the molecule, how does the melting point read?
Answer: 174 °C

Question: For `OC1(c2cn(-c3ccc(Br)cc3)nn2)CN2CCC1CC2` (centres unmarked), which melting point is on record?
Answer: 214 °C

Question: With `Brc1ccc(-c2cn([C@H]3CN4CCC3CC4)nn2)o1` as the molecule, how does the melting point read?
Answer: 144 °C

Question: With `Brc1csc(-c2cn([C@H]3CN4CCC3CC4)nn2)c1` as the molecule, how does the melting point read?
Answer: 106 °C

Question: For `Brc1coc(-c2cn([C@H]3CN4CCC3CC4)nn2)c1`, which melting point is on record?
Answer: 129 °C

Question: With `Fc1ccc(-c2ccc(-c3cn([C@H]4CN5CCC4CC5)nn3)cc2)cn1` as the molecule, how does the melting point read?
Answer: 181 °C

Question: For `OCc1ccc(-c2cn([C@H]3CN4CCC3CC4)nn2)cc1` [Compound 38, (R)-(4-(1-(Quinuclidin-3-yl)-1H-1,2,3-triazol-4-yl)phenyl)methanol], which melting point is on record?
Answer: 200 °C

Question: Which melting point does the source give for `Fc1ccc(-c2cn([C@H]3CN4CCC3CC4)nn2)cc1` [Compound 42, (R)-3-(4-(4-Fluorophenyl)-1H-1,2,3-triazol-1-yl)quinuclidine] here?
Answer: 180 °C

Question: With `COc1ccccc1-c1cn([C@H]2CN3CCC2CC3)nn1` [Compound 48, (R)-3-(4-(2-Methoxyphenyl)-1H-1,2,3-triazol-1-yl)quinuclidine] as the molecule, how does the melting point read?
Answer: 120 °C

Question: With `c1cc(-c2cn([C@H]3CN4CCC3CC4)nn2)ccn1` [Compound 50, (R)-3-(4-(Pyridin-4-yl)-1H-1,2,3-triazole-1-yl)quinuclidine] as the molecule, how does the melting point read?
Answer: 150 °C

Question: For `FCc1ccc(-c2cn([C@H]3CN4CCC3CC4)nn2)cc1` [Compound 58, (R)-3-(4-(4-(Fluoromethyl)phenyl)-1H-1,2,3-triazol-1-yl)quinuclidine], which melting point is on record?
Answer: 138 °C

Question: With `OCc1cccc(-c2ccc(-c3cn([C@H]4CN5CCC4CC5)nn3)s2)c1` [Compound 85, (R)-[3-[5-[1-[quinuclidin-3-yl]-1H2,3-triazol-4-yl]-2-thienyl]phenyl]methanol] as the molecule, how does the melting point read?
Answer: 181 °C

Question: For `OCc1ccc(-c2csc(-c3cn([C@H]4CN5CCC4CC5)nn3)c2)cc1` [Compound 86, (R)-[4-[5-[1-[quinuclidin-3-yl]-1H-1,2,3-triazol-4-yl]-3-thienyl]phenyl]methanol], which melting point is on record?
Answer: 196 °C

Question: Which melting point does the source give for `Fc1ccc(-c2ccc(-c3cn([C@H]4CN5CCC4CC5)nn3)s2)cn1` [Compound 87, (R)-3-[4-[5-(6-fluoro-3-pyridyl)-2-thienyl]-1H,1,2,3-triazol-1-yl]quinuclidine] here?
Answer: 163 °C

Question: For `Fc1ccc(-c2csc(-c3cn([C@H]4CN5CCC4CC5)nn3)c2)cn1` [Compound 88, (R)-3-[4-[4-(6-fluoro-3-pyridyl)-2-thienyl]-1H-1,2,3-triazol-1-yl]quinuclidine], which melting point is on record?
Answer: 136 °C
